Where “and” joins values, the source holds several entries; their conditions need not be identical. Identical values can stand only once. Like-named read-outs stand apart in the source and are kept apart here.
Columns and labels:
Human mTOR (FLAG-TOR) = Human mTOR (FLAG-TOR) (Homo sapiens, UniProt P42345); assay: mTOR kinase assay (DELFIA format, purified enzyme); type: biochemical; conditions: read-out: IC50 mTOR
[1] = test system: human breast MDA-MB-361 tumor cell line; assay: In vitro cell culture growth assay (MTS), MDA-MB-361; type: cell-based; conditions: Homo sapiens, three days after drug treatment, read-out: IC50 MDA-MB-361
[2] = test system: human prostate PC3-mm2 tumor cell line; assay: In vitro cell culture growth assay (MTS), PC3-mm2; type: cell-based; conditions: Homo sapiens, PC3MM2, 72 h, three days after drug treatment, read-out: IC50 PC3-mm2
PI3K-α = PI3K-α (Homo sapiens, UniProt P42336); assay: PI3K-alpha fluorescence polarization assay; conditions: read-out: IC50 PI3Kα
PI3K-α, sequence (P42336 whole entry, species assumed): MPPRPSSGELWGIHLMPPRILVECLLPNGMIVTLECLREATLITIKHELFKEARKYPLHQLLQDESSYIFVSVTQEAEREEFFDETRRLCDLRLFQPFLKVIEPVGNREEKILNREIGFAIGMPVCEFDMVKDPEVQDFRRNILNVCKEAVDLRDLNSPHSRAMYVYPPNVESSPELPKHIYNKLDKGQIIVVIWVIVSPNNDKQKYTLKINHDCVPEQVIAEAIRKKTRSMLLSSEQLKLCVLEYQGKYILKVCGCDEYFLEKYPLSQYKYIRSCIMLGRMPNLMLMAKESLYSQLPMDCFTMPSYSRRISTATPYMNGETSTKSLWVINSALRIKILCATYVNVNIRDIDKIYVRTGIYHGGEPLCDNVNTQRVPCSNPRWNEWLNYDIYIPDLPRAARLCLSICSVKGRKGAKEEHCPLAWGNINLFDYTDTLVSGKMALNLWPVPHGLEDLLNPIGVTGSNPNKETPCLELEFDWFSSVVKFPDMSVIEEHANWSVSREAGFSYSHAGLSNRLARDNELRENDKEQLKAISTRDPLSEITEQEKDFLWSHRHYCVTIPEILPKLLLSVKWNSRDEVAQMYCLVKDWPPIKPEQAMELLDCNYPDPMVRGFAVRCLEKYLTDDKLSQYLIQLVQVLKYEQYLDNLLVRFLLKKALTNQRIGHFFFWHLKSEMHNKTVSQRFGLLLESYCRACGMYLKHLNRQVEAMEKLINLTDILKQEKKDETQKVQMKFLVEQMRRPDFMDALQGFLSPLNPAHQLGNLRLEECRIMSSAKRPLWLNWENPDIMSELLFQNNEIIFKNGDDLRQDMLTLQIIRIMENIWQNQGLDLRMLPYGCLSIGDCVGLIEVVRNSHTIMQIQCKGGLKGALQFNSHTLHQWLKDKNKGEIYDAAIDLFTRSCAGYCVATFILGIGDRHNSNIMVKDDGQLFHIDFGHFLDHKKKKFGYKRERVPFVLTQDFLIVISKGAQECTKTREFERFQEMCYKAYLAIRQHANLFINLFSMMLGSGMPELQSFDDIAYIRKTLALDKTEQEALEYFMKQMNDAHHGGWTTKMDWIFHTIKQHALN
PI3K-α, sequence (P27986 whole entry partner, species assumed): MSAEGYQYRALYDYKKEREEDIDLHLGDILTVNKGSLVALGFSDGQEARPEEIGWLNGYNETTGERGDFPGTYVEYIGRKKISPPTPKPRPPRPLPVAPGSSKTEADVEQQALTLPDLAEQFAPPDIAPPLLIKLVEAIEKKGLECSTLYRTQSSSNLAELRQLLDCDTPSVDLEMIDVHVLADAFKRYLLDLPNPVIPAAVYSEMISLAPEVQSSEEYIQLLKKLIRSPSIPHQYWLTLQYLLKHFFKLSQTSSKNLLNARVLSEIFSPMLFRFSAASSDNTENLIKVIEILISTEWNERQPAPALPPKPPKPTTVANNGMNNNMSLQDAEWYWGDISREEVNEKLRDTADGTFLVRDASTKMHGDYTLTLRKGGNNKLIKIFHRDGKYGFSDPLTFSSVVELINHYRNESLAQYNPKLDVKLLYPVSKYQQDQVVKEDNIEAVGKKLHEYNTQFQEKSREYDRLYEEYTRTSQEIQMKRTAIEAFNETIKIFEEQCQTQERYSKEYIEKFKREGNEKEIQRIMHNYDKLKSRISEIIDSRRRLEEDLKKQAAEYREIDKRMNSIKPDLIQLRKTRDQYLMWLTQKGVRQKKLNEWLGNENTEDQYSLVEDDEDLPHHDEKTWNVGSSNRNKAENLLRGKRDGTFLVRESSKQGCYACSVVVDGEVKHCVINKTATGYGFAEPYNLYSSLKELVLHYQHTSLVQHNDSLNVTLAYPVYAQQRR

PI3K-γ = PI3K-γ (Homo sapiens, UniProt P48736); assay: PI3K-gamma fluorescence polarization assay; conditions: read-out: IC50 PI3Kγ
PI3K-γ, sequence (P48736 whole entry, species assumed): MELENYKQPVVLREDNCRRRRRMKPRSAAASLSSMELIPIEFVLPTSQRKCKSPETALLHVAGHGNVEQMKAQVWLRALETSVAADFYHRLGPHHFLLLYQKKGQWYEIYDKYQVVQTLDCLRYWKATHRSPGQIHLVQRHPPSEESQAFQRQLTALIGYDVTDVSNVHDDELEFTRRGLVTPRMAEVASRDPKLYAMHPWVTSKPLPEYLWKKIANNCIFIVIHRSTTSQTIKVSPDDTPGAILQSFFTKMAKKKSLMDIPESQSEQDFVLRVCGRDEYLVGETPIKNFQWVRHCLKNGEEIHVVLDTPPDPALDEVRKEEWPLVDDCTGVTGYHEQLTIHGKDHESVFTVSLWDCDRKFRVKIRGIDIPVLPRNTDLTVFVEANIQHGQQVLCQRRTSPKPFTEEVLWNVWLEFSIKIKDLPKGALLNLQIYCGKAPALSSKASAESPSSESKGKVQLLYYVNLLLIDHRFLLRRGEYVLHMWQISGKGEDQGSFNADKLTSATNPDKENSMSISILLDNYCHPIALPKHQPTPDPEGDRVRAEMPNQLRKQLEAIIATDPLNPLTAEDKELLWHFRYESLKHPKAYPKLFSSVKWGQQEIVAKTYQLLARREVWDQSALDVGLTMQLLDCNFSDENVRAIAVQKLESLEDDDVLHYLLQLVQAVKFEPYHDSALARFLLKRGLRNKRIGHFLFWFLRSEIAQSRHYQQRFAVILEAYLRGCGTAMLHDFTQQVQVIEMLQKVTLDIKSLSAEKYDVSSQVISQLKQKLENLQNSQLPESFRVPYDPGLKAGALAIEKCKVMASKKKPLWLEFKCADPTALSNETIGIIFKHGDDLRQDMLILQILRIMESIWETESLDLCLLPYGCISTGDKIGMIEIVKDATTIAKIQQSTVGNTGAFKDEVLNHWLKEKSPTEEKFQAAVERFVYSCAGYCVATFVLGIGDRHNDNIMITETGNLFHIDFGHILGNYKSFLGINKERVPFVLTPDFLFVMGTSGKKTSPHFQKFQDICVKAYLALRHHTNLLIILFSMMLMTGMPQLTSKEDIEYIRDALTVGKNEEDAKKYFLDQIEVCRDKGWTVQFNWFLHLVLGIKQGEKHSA

[3] = MDA-MB-361, 72 h, MTS cell growth assay
[4] = MTS cell growth assay, PC3-mm2 cells
[5] = MDA-MB-361, 72 h, MTS cell growth assay, MDA-MB-361 cells

Human mTOR (FLAG-TOR), sequence (P42345 1360-2549 limits assumed): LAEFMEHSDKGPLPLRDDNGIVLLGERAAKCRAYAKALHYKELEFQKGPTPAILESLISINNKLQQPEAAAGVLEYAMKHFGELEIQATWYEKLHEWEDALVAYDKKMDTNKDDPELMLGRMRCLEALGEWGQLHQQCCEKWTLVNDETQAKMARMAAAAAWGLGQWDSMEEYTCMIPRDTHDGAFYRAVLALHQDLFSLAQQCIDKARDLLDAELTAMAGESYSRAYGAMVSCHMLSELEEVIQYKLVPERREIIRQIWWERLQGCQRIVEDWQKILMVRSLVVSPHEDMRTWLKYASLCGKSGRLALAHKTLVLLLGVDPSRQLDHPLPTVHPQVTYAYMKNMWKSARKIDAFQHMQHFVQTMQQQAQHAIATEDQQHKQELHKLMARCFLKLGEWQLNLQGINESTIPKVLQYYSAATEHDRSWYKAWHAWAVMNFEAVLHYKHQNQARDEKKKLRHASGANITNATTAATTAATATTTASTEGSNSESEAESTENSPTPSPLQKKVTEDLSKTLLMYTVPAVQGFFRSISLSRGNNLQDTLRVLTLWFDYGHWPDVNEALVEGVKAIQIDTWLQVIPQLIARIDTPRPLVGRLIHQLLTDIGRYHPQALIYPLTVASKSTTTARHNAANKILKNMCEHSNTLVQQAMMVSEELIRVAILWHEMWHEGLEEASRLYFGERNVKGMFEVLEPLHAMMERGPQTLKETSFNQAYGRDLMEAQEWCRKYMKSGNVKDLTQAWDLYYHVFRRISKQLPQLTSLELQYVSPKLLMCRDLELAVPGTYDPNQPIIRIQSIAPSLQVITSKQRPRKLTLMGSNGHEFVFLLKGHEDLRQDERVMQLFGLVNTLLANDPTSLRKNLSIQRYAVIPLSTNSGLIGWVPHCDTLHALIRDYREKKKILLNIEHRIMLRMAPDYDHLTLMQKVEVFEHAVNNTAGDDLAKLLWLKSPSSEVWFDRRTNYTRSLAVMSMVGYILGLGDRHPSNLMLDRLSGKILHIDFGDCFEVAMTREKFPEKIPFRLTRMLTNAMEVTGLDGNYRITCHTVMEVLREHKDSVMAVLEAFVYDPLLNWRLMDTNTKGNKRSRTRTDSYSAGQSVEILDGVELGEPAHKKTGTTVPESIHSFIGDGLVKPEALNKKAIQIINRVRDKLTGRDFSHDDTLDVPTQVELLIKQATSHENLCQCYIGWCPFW

| SMILES | IC50 (Human mTOR (FLAG-TOR)) | IC50 ([1]; 72 h, MDA-MB-361 cells, MTS) | IC50 ([2]; PC3-mm2 cells, MTS) | IC50 (PI3K-α) | IC50 (PI3K-γ) | IC50 [1, 3] | IC50 [2, 4] | IC50 ([2]; MTS cell growth assay) | IC50 (PI3K-α; listed as 735) | IC50 (PI3K-γ; listed as 735) | IC50 (PI3K-γ; listed as 707) | IC50 ([1]; MDA-MB-361, 72 h, MDA-MB-361 cells, MTS) | IC50 [1, 5] | IC50 (PI3K-α; listed as 229) | IC50 (PI3K-α; listed as 678) | IC50 (PI3K-γ; listed as 229) | IC50 (PI3K-γ; listed as 678) |
| --- | --- | --- | --- | --- | --- | --- | --- | --- | --- | --- | --- | --- | --- | --- | --- | --- | --- |
| O=C(Nc1ccc(C(=O)NCCN2CCCCC2)cc1)Nc1ccc(-c2nc(N3CCOCC3)nc(N3C4CCCC3COC4)n2)cc1 [Example 799, 4-[({4-[4-morpholin-4-yl-6-(3-oxa-9-azabicyclo[3.3.1]non-9-yl)-1,3,5-triazin-2-yl]phenyl}carbamoyl)amino]-N-(2-piperidin-1-ylethyl)benzamide] | 0.5 nM | < 3.2 nM | 24 nM | 5 nM | 71.5 nM |  |  |  |  |  |  |  |  |  |  |  |  |
| CN(C)CCNCCCc1nc(-c2ccc(NC(=O)Nc3ccncc3)cc2)nc(N2CCOCC2)n1 [Example 278, 1-{4-[4-(3-{[2-(dimethylamino)ethyl]amino}propyl)-6-morpholin-4-yl-1,3,5-triazin-2-yl]phenyl}-3-pyridin-4-ylurea] | 250 nM and 123 nM |  |  | 26 nM | 344 nM | 2300 nM | 3700 nM | 3700 nM | 26.5 nM | 290 nM |  |  |  |  |  |  |  |
| O=C(Nc1ccccc1)Nc1ccc(-c2nc(N3CCOCC3)nc(N3CCC4(CC3)OCCO4)n2)cc1 [Example 132, 1-{4-[4-(1,4-dioxa-8-azaspiro[4.5]dec-8-yl)-6-morpholin-4-yl-1,3,5-triazin-2-yl]phenyl}-3-phenylurea] | 26 nM and 34 nM |  |  | 14 nM | 234 nM | 586 nM | 1010 nM | 1010 nM |  |  | 234 nM |  |  |  |  |  |  |
| CN(C)CCN(C)C(=O)c1ccc(NC(=O)Nc2ccc(-c3nc(N4CCOCC4)nc(N4CC5CCC4CO5)n3)cc2)cc1 (stereo not drawn) [Example 816, N-[2-(dimethylamino)ethyl]-N-methyl-4-[({4-[4-morpholin-4-yl-6-(2-oxa-5-azabicyclo[2.2.2]oct-5-yl)-1,3,5-triazin-2-yl]phenyl}carbamoyl)amino]benzamide] | 1.06 nM | 2 nM | 11 nM | 2.4 nM | 26 nM |  |  |  |  |  |  |  |  |  |  |  |  |
| CC(C)N1CCN(C(=O)c2ccc(NC(=O)Nc3ccc(-c4nc(N5CCOCC5)nc(N5CC6CCC5CO6)n4)cc3)cc2)CC1 (stereo not drawn) [Example 811, 1-(4-{[4-(1-methylethyl)piperazin-1-yl]carbonyl}phenyl)-3-{4-[4-morpholin-4-yl-6-(2-oxa-5-azabicyclo[2.2.2]oct-5-yl)-1,3,5-triazin-2-yl]phenyl}urea] | 1.5 nM |  | 19 nM | 3.2 nM | 33.5 nM |  |  |  |  |  |  | 2 nM |  |  |  |  |  |
| Cc1ccc(-c2nc(-c3ccc(NC(=O)Nc4ccc(C(=O)N5CCN(C(C)C)CC5)cc4)cc3)nc(N3CCOCC3)n2)cc1 [Example 547, 1-{4-[(4-isopropylpiperazin-1-yl)carbonyl]phenyl}-3-{4-[4-(4-methylphenyl)-6-morpholin-4-yl-1,3,5-triazin-2-yl]phenyl}urea] | 7.75 nM |  |  | 11 nM | 70 nM |  | 197 nM |  |  |  |  |  | 68 nM |  |  |  |  |
| O=C(Nc1ccc(F)cc1)Nc1ccc(-c2nc(N3CCOCC3)nc(N3CCOCC3)n2)cc1 [Example 6, 1-[4-(4,6-dimorpholin-4-yl-1,3,5-triazin-2-yl)phenyl]-3-(4-fluorophenyl)urea] | 6 nM |  |  | 6 nM | 53 nM | 45 nM |  | 43 nM |  |  |  |  |  |  |  |  |  |
| CN1CCN(c2ccc(NC(=O)Nc3ccc(-c4nc(N5CCOCC5)nc(N5C6CCC5COC6)n4)cc3)cc2)CC1 [Example 43, 1-[4-(4-methylpiperazin-1-yl)phenyl]-3-{4-[4-morpholin-4-yl-6-(3-oxa-8-azabicyclo[3.2.1]oct-8-yl)-1,3,5-triazin-2-yl]phenyl}urea] | 0.77 nM and 1.65 nM and 1.17 nM |  |  | 28 nM | 35 nM | 35.8 nM | 40 nM | 40 nM |  |  |  |  | 35.8 nM | 19 nM | 21.3 nM | 70 nM | 45.3 nM |

Source: patent publication US20090304692A1, “TRIAZINE COMPOUNDS AS PI3 KINASE AND MTOR INHIBITORS” (Wyeth, priority 2008, published 2009)
